Measured values taken from US10975068B2, “6-aminopyridin-3-yl thiazoles as modulators of RORγT” (Janssen Pharmaceutica NV, priority 2016, dated 2021).
Where two headings read alike, the source gives them in different places.

Experiments:
full-length human RORγt = full-length human RORγt (Homo sapiens (Human), UniProt P51449); assay: RORγt (full-length human) reporter assay, Conditions B or C; format: cell-based; conditions: for RORγt (FL) Reporter Assay B or C, % inhibition (value marked *): marked *: footnote not given; for inhibition at 3 µM: at 3 μM compound concentration, read-out: RORγt (FL) Reporter Assay B or C, % inhibition; for inhibition at 6 µM: read-out: RORγt (FL) Reporter Assay B or C, % inhibition @ 6 μM, Conditions B or C
full-length human RORγt, sequence (P51449 other isoform, or with tags, fused parts or gaps): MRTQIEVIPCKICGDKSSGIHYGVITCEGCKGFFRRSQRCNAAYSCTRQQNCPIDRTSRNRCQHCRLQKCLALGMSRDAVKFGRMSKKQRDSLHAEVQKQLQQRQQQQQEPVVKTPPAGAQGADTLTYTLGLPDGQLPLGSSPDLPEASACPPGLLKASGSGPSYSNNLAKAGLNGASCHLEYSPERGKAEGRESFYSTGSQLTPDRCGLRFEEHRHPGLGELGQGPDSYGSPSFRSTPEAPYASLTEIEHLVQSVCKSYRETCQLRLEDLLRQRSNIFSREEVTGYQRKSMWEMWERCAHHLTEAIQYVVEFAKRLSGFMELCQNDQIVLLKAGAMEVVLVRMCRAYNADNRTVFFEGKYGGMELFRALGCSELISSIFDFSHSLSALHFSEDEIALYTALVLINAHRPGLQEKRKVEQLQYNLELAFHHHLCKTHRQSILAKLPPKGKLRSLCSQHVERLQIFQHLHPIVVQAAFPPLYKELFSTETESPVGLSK
Summary of the method: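 HEK293T cells transiently co-transfected with GAL4-DBD–full-length human RORγt (nt 142-1635, NM_001001523.1) plus GAL4-firefly and CMV-Renilla luciferase reporters; compounds added 4-6 h post-transfection for 16-20 h in 1.3% FBS, 0.1% DMSO. Firefly signal normalized to DMSO and saturating reference compound, then to Renilla; IC50 from concentration plots.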

[1] = system: IL-17 production by CD4 T cells; assay: Human Th17 assay; format: cell-based
From the text: The human Th17 assay tests the effect of RORγt modulatory compounds on IL-17 production by CD4 T cells under conditions which favor Th17 differentiation. Total CD4^+ T cells were isolated from the peripheral blood mononuclear cells (PBMC) of healthy donors using a CD4^+ T cell isolation kit II, following the manufacturer's instructions (Miltenyi Biotec). Cells were resuspended in a medium of RPMI-1640 supplemented with 10% fetal bovine serum, penicillin, streptomycin, glutamate, and β-mercaptoethanol and were added to 96-well plates at 1.5×10^5 per 100 μL per well. 50 μL of compound at titrated concentrations in DMSO were added into each well at final DMSO concentration at 0.2%. Cells were incubated for 1 hour, then 50 μL of Th17 cell differentiation medium was added to each well. The final concentrations of antibodies and cytokines (R&D Systems) in differentiation medium were: 3×10^6/mL anti-CD3/CD28 beads (prepared using human T cell activation/expansion kit, Miltenyi Biotec), 10 μg/mL anti-IL4, 10 μg/mL anti-IFNγ, 10 ng/mL IL1β, 10 ng/mL IL23, 50 ng/mL IL6, 3 ng/mL TGFβ and 20 U/mL IL2. Cells were cultured at 37° C. and 5% CO2 for 3 days. Supernatants were collected and the accumulated IL-17 in culture was measured by using MULTI-SPOT® Cytokine Plate following manufacture's instruction (Meso Scale Discovery). The plate was read using Sector Imager 6000, and IL-17 concentration was extrapolated from the standard curve. The IC50s were determined by GraphPad.

[2] = Conditions B or C, read-out: RORγt (FL) Reporter Assay B or C, IC50
[3] = read-out: Human Th17 Assay, IC50
[4] = read-out: RORγt (FL) Reporter Assay B or C, IC50
[5] = read-out: Human Th17 Assay, IC50 (μM)

| SMILES | RORγt (FL) Reporter Assay B or C, % inhibition (value marked *) (full-length human RORγt; Conditions B or C) | IC50 (full-length human RORγt; [2]) | IC50 [1, 3] | inhibition at 3 µM (full-length human RORγt) | IC50 (full-length human RORγt; [4]) | inhibition at 6 µM (full-length human RORγt) | IC50 [1, 5] | IC50 (full-length human RORγt; RORγt (FL) Reporter Assay B or C, IC50 (μM), Conditions B or C) |
| --- | --- | --- | --- | --- | --- | --- | --- | --- |
| C[C@H]1CC(F)(F)CN1C(=O)c1nc(C(=O)NCC(C)(C)O)sc1-c1cnc(NCC(C)(C)C)cc1C(F)F [Example 115, (S)-4-(4,4-Difluoro-2-methylpyrrolidine-1-carbonyl)-5-(4-(difluoromethyl)-6-(neopentylamino)pyridin-3-yl)-N-(2-hydroxy-2-methylpropyl)thiazole-2-carboxamide] | 115* % | 0.028 µM | 0.022 µM | – | – | – | – | – |
| C[C@H](NC(=O)c1nc(C(=O)N2CCC[C@@H]2C)c(-c2cnc(NC(C)(C)C)cc2C(F)(F)F)s1)C(C)(C)O [Example 336, 5-[6-(tert-Butylamino)-4-(trifluoromethyl)-3-pyridyl]-N-[(1S)-2-hydroxy-1,2-dimethyl-propyl]-4-[(2S)-2-methylpyrrolidine-1-carbonyl]thiazole-2-carboxamide] | – | – | 0.011 µM | 108% | 0.0056 µM | – | – | – |
| C[C@H](Nc1cc(C(F)(F)F)c(-c2sc(C(=O)NCC(C)(C)O)nc2C(=O)N2CCC[C@@H]2C)cn1)C1CC1 [Example 40, 5-(6-(((S)-1-Cyclopropylethyl)amino)-4-(trifluoromethyl)pyridin-3-yl)-N-(2-hydroxy-2-methylpropyl)-4-((S)-2-methylpyrrolidine-1-carbonyl)thiazole-2-carboxamide] | – | 0.013 µM | 0.056 µM | – | – | 102% | – | – |
| C[C@H]1CCCCN1C(=O)c1nc(C(=O)NCC(C)(C)O)sc1-c1cnc(NCC(C)(C)C)cc1C(F)(F)F [Example 86, (S)—N-(2-Hydroxy-2-methylpropyl)-4-(2-methylpiperidine-1-carbonyl)-5-(6-(neopentylamino)-4-(trifluoromethyl)pyridin-3-yl)thiazole-2-carboxamide] | 127* % | 0.013 µM | 0.0028 µM | – | – | – | – | – |
| C[C@H]1CCCN1C(=O)c1nc(C(=O)NCC(C)(C)O)sc1-c1cnc(NC2CCCC2)cc1C(F)(F)F [Example 38, (S)-5-(6-(Cyclopentylamino)-4-(trifluoromethyl)pyridin-3-yl)-N-(2-hydroxy-2-methylpropyl)-4-(2-methylpyrrolidine-1-carbonyl)thiazole-2-carboxamide] | – | 0.015 µM | 0.081 µM | – | – | 108% | – | – |
| C[C@H](NC(=O)c1nc(C(=O)N2CCC[C@@H]2C)c(-c2cnc(N[C@@H](C)C(F)(F)F)cc2C(F)F)s1)C(C)(C)O [Example 199, 5-(4-(Difluoromethyl)-6-(((S)-1,1,1-trifluoropropan-2-yl)amino)pyridine-3-yl)-N—((S)-3-hydroxy-3-methylburan-2-yl)-4-((S)-2-methylpyrrolidine-1-carbonyl)thiazole-2-carboxamide] | 94* % | 0.12 µM | 0.1 µM | – | – | – | – | – |
| CC[C@H](Nc1cc(C(F)(F)F)c(-c2sc(C(=O)NCC(C)(C)O)nc2C(=O)N2CCC[C@@H]2C)cn1)C1CC1 (relative stereo) [Example 128, 5-(6-(((S*)-1-Cyclopropylpropyl)amino)-4-(trifluoromethyl)pyridin-3-yl)-N-(2-hydroxy-2-methylpropyl)-4-((S)-2-methylpyrrolidine-1-carbonyl)thiazole-2-carboxamide] | 107* % | 0.023 µM | 0.018 µM | – | – | – | – | – |
| C[C@H](Nc1cc(C(F)F)c(-c2sc(C(=O)NCC(C)(C)O)nc2C(=O)N2CCCC[C@@H]2C)cn1)C(F)(F)F [Example 144] | 106* % | 0.076 µM | 0.013 µM | – | – | – | – | – |
| C[C@H](Nc1cc(C(F)(F)F)c(-c2sc(C(=O)NCC(C)(C)O)nc2C(=O)N2CC(F)(F)C[C@@H]2C)cn1)C1CC1 [Example 142, 5-(6-(((S)-1-Cyclopropylethyl)amino)-4-(trifluormethyl)pyridin-3-yl)-4-((S)-4,4-difluoro-2-methylpyrrolidine-1-carbonyl)-N-(2-hydroxy-2-methylpropyl)thiazole-2-carboxamide] | 109* % | 0.027 µM | 0.019 µM | – | – | – | – | – |
| C[C@H](Nc1cc(C(F)(F)F)c(-c2sc(C(=O)NCC(C)(C)O)nc2C(=O)N2C3CCC2CC3)cn1)C1CC1 [Example 51, 4-((1s,4s)-7-Azabicyclo[2.2.1]heptane-7-carbonyl)-5-(6-(((S)-1-cyclopropylethyl)amino)-4-(trifluoromethyl)pyridin-3-yl)-N-(2-hydroxy-2-methylpropyl)thiazole-2-carboxamide] | 101* % | 0.0048 µM | – | – | – | – | 0.021 µM | – |
| CC(C)(O)CNC(=O)c1nc(C(=O)N2C3CCC2CC3)c(-c2cnc(NC3(C)CCC3)cc2C(F)F)s1 [Example 169, 4-((1s,4s)-7-Azabicyclo[2.2[1]heptane-7-carbonyl)-5-(4-(difluoromethyl)-6-((1-methylcyclobutyl)amino)pyridine-3-yl)-N-(2-hydroxy-2-methylpropyl))thiazole-2-carboxamide] | 94* % | – | – | – | – | – | 0.034 µM | 0.012 µM |
| CC(C)(C)CNc1cc(C(F)F)c(-c2sc(C(=O)NCC(C)(C)O)nc2C(=O)N2C3CCC2CC3)cn1 [Example 116, 4-((1s,4s)-7-Azabicyclo[2.2.1]heptane-7-carbonyl)-5-(4-(difluoromethyl)-6-(neopentylamino)pyridin-3-yl)-N-(2-hydroxy-2-methylpropyl)thiazole-2-carboxamide] | 110* % | 0.034 µM | – | – | – | – | 0.044 µM | – |
| C[C@H]1CC(F)(F)CN1C(=O)c1nc(C(=O)NCC(C)(C)O)sc1-c1cnc(NC2(C(F)(F)F)CCC2)cc1C(F)F [Example 124, (S)-4-(4,4-Difluoro-2-methylpyrrolidine-1-carbonyl)-5-(4-(difluoromethyl)-6-((1-(trifluoromethyl)cyclobutyl)amino)pyridin-3-yl)-N-(2-hydroxy-2-methylpropyl)thiazole-2-carboxamide] | 108* % | 0.021 µM | 0.0067 µM | – | – | – | – | – |
| C[C@H](NC(=O)c1nc(C(=O)N2CC(F)(F)C[C@@H]2C)c(-c2cnc(N[C@@H](C)C(F)(F)F)cc2C(F)F)s1)C(C)(C)O [Example 197] | 91* % | 0.066 µM | 0.03 µM | – | – | – | – | – |
| C[C@H]1CCCN1C(=O)c1nc(C(=O)NC[C@@H](O)C(C)(C)O)sc1-c1cnc(NC(C)(C)C)cc1C(F)(F)F (single isomer, unassigned) [Example 243, 5-(6-(tert-Butylamino)-4-(trifluoromethyl)pyridin-3-yl)-N—((R*)-2,3-dihydroxy-3-methylbutyl)-4-((S)-2-methylpyrrolidine-1-carbonyl)thiazole-2-carboxamide] | 95* % | 0.0068 µM | 0.063 µM | – | – | – | – | – |
| C[C@H]1CCCN1C(=O)c1nc(C(=O)NCC(C)(C)O)sc1-c1cnc(NC(C)(C)C)cc1C(F)(F)F [Example 52, (S)-5-(6-(tert-Butylamino)-4-(trifluoromethyl)pyridin-3-yl)-N-(2-hydroxy-2-methylpropyl)-4-(2-methylpyrrolidine-1-carbonyl)thiazole-2-carboxamide] | 106* % | 0.0088 µM | 0.01 µM | – | – | – | – | – |
| C[C@H]1CCCN1C(=O)c1nc(C(=O)NCc2n[nH]c(=O)o2)sc1-c1cnc(NC(C)(C)C)cc1C(F)(F)F [Example 305, (S)-5-(6-(tert-Butylamino)-4-(trifluoromethyl)pyridin-3-yl)-4-(2-methylpyrrolidine-1-carbonyl)-N-((5-oxo-4,5-dihydro-1,3,4-oxadiazol-2-yl)methyl)thiazole-2-carboxamide] | – | – | 0.089 µM | 100% | 0.036 µM | – | – | – |
| C[C@H]1CCCN1C(=O)c1nc(C(=O)NCC(C)(C)O)sc1-c1cnc(NCC(C)(C)C)cc1C(F)(F)F [Example 87, (S)—N-(2-Hydroxy-2-methylpropyl)-4-(2-methylpyrrolidine-1-carbonyl)-5-(6-(neopentylamino)-4-(trifluoromethyl)pyridin-3-yl)thiazole-2-carboxamide] | 140* % | 0.029 µM | 0.025 µM | – | – | – | – | – |
